pEC50, pKi: −log10 of the molar value. Where two headings read alike, the source gives them in different places.
Columns and labels:
CB receptors = target: T1, CB receptors (Rattus norvegicus, UniProt P20272); experiment: [3H]WIN55212-2 competition binding in rat brain membrane homogenate; settings: for displace [3H]WIN55212-2: rat brain membrane homogenate
T1 construct: Crude membrane fractions were prepared from the brain without cerebellum; from tissue; host or cells: Wistar rat brain without cerebellum, crude membrane fraction
T1 sequence (P20272 whole entry): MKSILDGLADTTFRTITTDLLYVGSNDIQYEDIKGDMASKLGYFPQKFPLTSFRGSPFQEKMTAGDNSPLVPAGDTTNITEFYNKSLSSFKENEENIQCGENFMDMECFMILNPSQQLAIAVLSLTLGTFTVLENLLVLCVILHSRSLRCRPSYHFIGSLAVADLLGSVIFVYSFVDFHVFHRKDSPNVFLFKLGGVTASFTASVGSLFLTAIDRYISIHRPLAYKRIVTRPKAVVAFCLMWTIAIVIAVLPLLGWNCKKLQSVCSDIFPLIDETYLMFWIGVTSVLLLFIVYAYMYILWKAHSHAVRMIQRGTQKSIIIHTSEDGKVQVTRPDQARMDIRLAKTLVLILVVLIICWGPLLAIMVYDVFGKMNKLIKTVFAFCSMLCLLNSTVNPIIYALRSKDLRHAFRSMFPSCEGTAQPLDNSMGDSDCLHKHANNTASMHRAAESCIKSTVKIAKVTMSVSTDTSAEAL
Experimental: (§1) Wistar rats were locally bred and handled according to the European Communities Council Directives (86/609/ECC) and the Hungarian Act for the Protection of Animals in Research (XXVlll.tv. Section 32). Crude membrane fractions were prepared from the brain without cerebellum. Brains were quickly removed from the euthanized rats and directly put in ice-cold 50 mM Tris-HCl buffer (pH 7.4). The collected tissue was then homogenized in 30 volumes (v/w) of ice-cold buffer with a Braun Teflon-glass homogenizer at the highest rpm. The homogenate was centrifuged at 20,000 g for 25 min and the resulting pellet was suspended in the same volume of cold buffer followed by incubation at 37°C for 30 min to remove endogenous ligands. Centrifugation was then repeated. The final pellets were taken up in five volumes of 50 mM Tris-HCl (pH 7.4) buffer containing 0.32 M sucrose and stored at -80°C. Prior to the experiment, aliquots were thawed and centrifuged at 20,000 g for 25 min and the were resuspended in 50 mM Tris-HCl (pH 7.4), homogenized with a Dounce in followed by the determination of the protein concentration by the method of Bradford.
Binding experiments were performed at 30 °C for 1 h in 50 mM Tris-HCl buffer pH 7.4 containing 2.5 mM EGTA, 5 mM MgCl2 and 0.5 mg/mL fatty acid free BSA in plastic tubes in a total assay volume of 1 mL that contained 0.3-0.5 mg/mL membrane protein.
Non-specific binding was determined in the presence of 10 µM WIN 55212-2. The incubation was terminated by diluting the samples with ice-cold wash buffer (50 mM Tris-HCl, 2.5 mM EGTA, 5 mM MgCl2, 0.5% fatty acid free BSA, pH 7.4), followed by repeated washing and rapid filtration through Whatman GF/B glass fiber filters (Whatman Ltd, Maidstone, England) presoaked with 0.1% polyethyleneimine (30 min before the filtration). Filtration was performed with a 24-well Brandel Cell Harvester (Gaithersburg, MD, USA). Filters were air-dried and immersed into Ultima Gold MV scintillation cocktail and then radioactivity was measured with a TRI-CARB 2100TR liquid scintillation analyzer (Packard).
(§2) Results are expressed as means ± S.E.M. of at least three independent experiments each performed in duplicate. In competition binding studies, the inhibitory constants (Ki) were calculated from the inflection points of the displacement curves using non-linear least-square curve fitting and the Cheng- Prusoff equation. All data and curves were analyzed by GraphPad Prism 5.0 (San Diego, CA, USA). In [^35S]GTPγS binding studies, data were expressed as the percentage stimulation of the specific [^35S]GTPγS binding over the basal activity and are given as means ± S.E.M. Each experiment was performed in triplicate and analyzed with sigmoid dose-response curve fitting to obtain potency (EC50) and efficacy (Emax) values. Statistical comparison was done by analysis of variance (one-way ANOVA) followed by the Bonferroni multiple comparison test of GraphPad Prism 5.0 (San Diego, CA, USA), P< 0.05 was chosen to indicate significant differences.

[1] = target: CB receptor-associated G-proteins; experiment: Ligand stimulated [35S]GTPγS binding assay in rat brain membrane homogenate; type: biochemical; settings: for pEC50: [35S]GTPγS binding; for pEC50 / Emax (%) ±SEM: rat brain membranes; for Emax (%) ±SEM: specific [35S]GTPγS binding, basal set as 100%; for G-protein stimulation (functional character): rat brain membrane homogenate
Experimental: as §1
(§3) Rat brain membranes (30 µg protein/tube) prepared as described above, were incubated with 0.05 nM [^35S]GTPγS (PerkinElmer) and 10^-10-10^-5 M unlabeled ligands in the presence of 30 µM GDP, 100 mM NaCl, 3 mM MgCl2 and 1 mM EGTA in 50 mM Tris-HCl buffer (pH 7.4) for 60 min at 30°C. Basal [^35S]GTPγS binding was measured in the absence of ligands and set as 100%. Nonspecific binding was determined by the addition of 10 µM unlabeled GTPγS and subtracted from total binding. Incubation, filtration and radioactivity measurement of the samples were carried out as described above.
as §2

CB1 receptor = target: T2, CB1 receptor (Rattus norvegicus, UniProt P20272); experiment: CB1/CB2 receptor selectivity by [35S]GTPγS binding assay with rimonabant or AM630; type: biochemical; settings: compound 10 µM; rimonabant 10 µM (CB1) vs AM630 10 µM (CB2)
T2 construct: Crude membrane fractions were prepared from the brain without cerebellum; from tissue; host or cells: Wistar rat brain without cerebellum, crude membrane fraction
T2 sequence (P20272 whole entry): as above
Experimental: Figures represent the specific binding of the radioligand in percentage in the presence of increasing concentrations (10^-10-10^-5 M) of the indicated ligands. "Total" on the x-axis indicates the total specific binding of the radioligand, which is measured in the absence of the unlabeled compounds. […] Figures represent relative specific binding of [^35S]GTPγS in the presence of increasing concentrations (10^-11-10^-5 M) of the indicated compounds. […] The specific binding of [^35S]GTPγS is represented in percentage in the presence or absence of 10 µM rimonabant (CB1 antagonist/inverse agonist) or AM630 (CB2 antagonist/inverse agonist). Data are expressed as percentage of mean specific binding ± S.E.M. (n≥ 3).
as §3
In the next step the compounds were evaluated for CB1/CB2 receptor selectivity by [^35S]GTPγS binding assays. The G-protein stimulatory effect of compounds LONI 1-LONI 9 (10 µM) was reduced by the CB1 receptor antagonist/inverse agonist rimonabant (10 µM) and by the CB2 receptor antagonist/inverse agonist AM630 (10 µM), and a 3-6-fold selectivity for CB1 receptor was observed.

Row | SMILES | Ki (CB receptors; 1.5 nM [3H]WIN55212-2, rat brain membranes, mean of three independent measurements (S.E.M. 5-12%), read-out: Ki (nM)*) [nM] | pEC50 ([1]; read-out: EC50) | Emax (%) ±SEM [1] [%] | pKi (CB receptors) | pEC50 ([1]; read-out: potency) | G-protein stimulation (functional character) [1] | selectivity for CB1 receptor (CB1 receptor) [fold] | displace [3H]WIN55212-2 (CB receptors)
1 | CCCCCn1cc(C(=O)c2cccc3ccccc23)c2ccccc21 [JWH-018, reference compound] | 3.5 | 7.80 | 163 ± 5.2 |  |  |  |  | 
2 | CC(C)(C)[C@H](NC(=O)c1nn(Cc2ccc(Cl)cc2Cl)c2ccccc12)C(=O)O [LONI 1, (S)-2-(1-(2,4-dichlorobenzyl)-1H-indazole-3-carboxamido)-3,3-dimethylbutanoic acid] |  | 5.55 | 84 ± 6.6 | 10.10 | 5.49 to 5.74 | weak inverse agonist activity |  | 
3 | COC(=O)[C@@H](NC(=O)c1nn(Cc2ccc(Cl)cc2Cl)c2ccccc12)C(C)(C)C [LONI 2, (S)-methyl 2-(1-(2,4-dichlorobenzyl)-1H-indazole-3-carboxamido)-3,3-dimethylbutanoate] |  | 8.08 | 143 ±5.7 | 8.51 |  |  |  | 
4 | CC(C)(C)[C@H](NC(=O)c1nn(Cc2ccc(Cl)cc2Cl)c2ccccc12)C(N)=O [LONI 3, (S)-N-(1-amino-3,3-dimethyl-1-oxobutan-2-yl)-1-(2,4-dichlorobenzyl)-1H-indazole-3 carboxamide] |  | 6.90 | 139 ± 4.5 | 7.77 |  | partial agonists | 6 | 
5 | CC(C)[C@H](NC(=O)c1nn(Cc2ccc(Cl)cc2Cl)c2ccccc12)C(=O)O [LONI 4, (S)-2-(1-(2,4-dichlorobenzyl)-1H-indazole-3-carboxamido)-3-methylbutanoic aci] |  | 5.48 | 82 ± 10.6 | 8.59 | 5.49 to 5.74 | weak inverse agonist activity | 3 | 
6 | COC(=O)[C@@H](NC(=O)c1nn(Cc2ccc(Cl)cc2Cl)c2ccccc12)C(C)C [LONI 5, (S)-methyl 2-(1-(2,4-dichlorobenzyl)-1H-indazole-3-carboxamido)-3-methylbutanoate] |  |  | 140 ± 3.7 | 8.74 |  |  |  | 
7 | CC(C)[C@H](NC(=O)c1nn(Cc2ccc(Cl)cc2Cl)c2ccccc12)C(N)=O [LONI 6, (S)-N-(1-amino-3-methyl-1-oxobutan-2-yl)-1-(2,4-dichlorobenzyl)-1H-indazole-3-carboxamide] |  |  | 135 ± 4.9 | 7.77 |  | partial agonists |  | 
8 | CC(C)C[C@H](NC(=O)c1nn(Cc2ccc(Cl)cc2Cl)c2ccccc12)C(=O)O [LONI 7, (S)-2-(1-(2,4-dichlorobenzyl)-1H-indazole-3-carboxamido)-4-methylpentanoic acid] |  | 5.73 | 86 ± 9.3 | 7.37 | 5.49 to 5.74 | weak inverse agonist activity |  | 
9 | COC(=O)[C@H](CC(C)C)NC(=O)c1nn(Cc2ccc(Cl)cc2Cl)c2ccccc12 [LONI 8, (S)-methyl 2-(1-(2,4-dichlorobenzyl)-1H-indazole-3-carboxamido)-4-methylpentanoate] |  |  | 122 ± 4.6 | 7.20 |  |  |  | 
10 | CC(C)C[C@H](NC(=O)c1nn(Cc2ccc(Cl)cc2Cl)c2ccccc12)C(N)=O [LONI 9, (S)-N-(1-amino-4-methyl-1-oxopentan-2-yl)-1-(2,4-dichlorobenzyl)-1H-indazole-3-carboxamide] |  |  | 120 ± 5.9 | 7.06 |  | partial agonists | 6 | 
11 | O=C(O)c1nn(Cc2ccc(Cl)cc2Cl)c2ccccc12 [LONI A, Lonidamine, reference compound] |  |  |  |  |  | didn't show G-protein stimulation |  | neither LONI A nor its derivatives LONI B and LONI C could displace [^3H]WIN55212-2
12 | NC(=O)c1nn(Cc2ccc(Cl)cc2Cl)c2ccccc12 [LONI B, reference compound] |  | 5.56 | 70 ± 8.7 |  |  | weak inverse agonist |  | neither LONI A nor its derivatives LONI B and LONI C could displace [^3H]WIN55212-2
13 | COC(=O)c1nn(Cc2ccc(Cl)cc2Cl)c2ccccc12 [LONI C, reference compound] |  | 5.50 | 69 ± 2.6 |  |  | weak inverse agonist |  | neither LONI A nor its derivatives LONI B and LONI C could displace [^3H]WIN55212-2

From patent publication EP3564214B1, “INDAZOLE DERIVATIVES AS MODULATORS OF THE CANNABINOID SYSTEM” (Universita' Degli Studi G. D'annunzio Chieti - Pescara, priority 2018, dated 2019)
